Patent publication US8580753B2, “Modulation of telomere length in telomerase positive cells and cancer therapy” (ALT Solutions Inc., priority 2005, dated 2013)
Entries after “also recorded” stand apart in the source; their conditions may differ. Read-outs that look alike come from different tables or passages of the source.

Tests used:
NuTu-19 cells = experiment: Exemplary in vivo assay: pre-established NuTu-19 tumors in Fischer rats; details: for tumor growth: in drinking water ad libitum, administered 21-28 days to tumor bearing rats
Method: In another embodiment, the reagents and methods of the invention can be used to promote tumor regression in vivo in immunocompetent animals carrying pre-established tumors; i.e., the reagents of the invention can be used to treat animals with pre-existing tumors. In this case, the cancerous 10^6 NuTu-19 cells are injected subcutaneously in the flank of the Fischer rats to establish tumors.

NuTu-19 cell line [1] = experiment: Telomere length by flow cytometry with telomere-specific PNA probe; type: cell-based; details: for telomere length: NuTu-19, GCV 1.5 μM or ACV 3.0 μM, 14 days
Method: (§1) Telomere length in GCV and ACV treated and untreated cell lines was measured by flow cytometry with a telomere-specific peptide nucleic acid (PNA) probe^23,24. To determine cell cycle distribution, cells were stained with propidium iodide (PI)^23.
(§2) The origin of the cell lines are uterine cervix (HeLa) and epithelial ovarian (NuTu-19). Cells were cultured in D-MEM media supplemented with 10% fetal calf serum at 37° C. in a humidified atmosphere of 5% CO2. For treatment of the cells with GCV, the media was supplemented with 1.5 µM of GCV (Cymevene, Hoffman-La Roche). For treatment of the cells with ACV, the media was supplemented with 3 µM of Aciclovir (Aciclovir, TEVA Pharm. Ind. Ltd, Israel).
(§3) For telomere length measurement by flow cytometry, cells were stained with telomere specific FITC conjugated (C3TA2)3 PNA (Applied Biosystems) probe and contrastained with 0.06 µg/ml PI as described by Rufer, N., Dragowska, W., Thornbury G., Roosnek, B., Lansdorp P. M. Telomere length dynamics in human lymphocyte subpopulations […]. Nat. Biotechnol. 16, 743-747 (1998)).

HeLa cell line [2] = experiment: Cell cycle distribution and apoptosis by propidium iodide staining and flow cytometry; type: cell-based, human
Method: as §1
(§4) It is important to note that changes were rapid and could be detected after only 14 days of ACV treatment. In contrast, the nucleoside analog, AZT had no effect on telomere length or cell cycle distribution in telomerase positive cells, HeLa and NuTu-19, even at elevated concentrations e.g., 100 µM (data not shown).
as §2, §3

NuTu-19 cell line [3] = experiment: as above; type: cell-based
Method: as §1, §4, §2, §3

HeLa cell line [4] = experiment: Telomere length by flow cytometry with telomere-specific PNA probe; type: cell-based, human
Method: as §1, §2, §3

[5] = system: telomerase positive cell lines; experiment: DNA content by PI staining at later stages of treatment; type: cell-based; details: compared to untreated cells, cell line not specified
Method: A rational explanation of this fact is a short telomere induced chromosome end-to-end joining^25.
as §2, §3

HeLa cells = experiment: Nude mice injected s.c. with HeLa cells, Valcyte in drinking water; type: in vivo
Method: Human cancer HeLa cell culture was purchased from ATCC. In all, 12 CD1/-nu and 12 NMRiJI-nu nude mice were purchased from Charles River Laboratories, Charles River Deutschland GmbH. These nude mice were injected s.c. with […] HeLa cells. Experimental group received valganciclovir in drinking water from day 0. Specifically, mice in the experimental groups (6 mice per strain) were exposed to Valcyte (val-ganciclovir) in drinking water (1 mg/ml) from day 0. […] In about 14 days, all mice were bearing the tumors.

mammalian cells = details: short-time exposure, 5 μM, in vitro and in vivo; cited from earlier work
[6] = system: telomerase positive cell lines; details: prolonged exposure, cited from earlier work
[7] = single oral dose of 300 mg; cited from earlier work
[8] = GCV 1.5 μM or ACV 3.0 μM, 14 days
[9] = NuTu-19, GCV 1.5 μM or ACV 3.0 μM, 14 days
[10] = NuTu-19, even at elevated concentrations e.g. 100 μM (data not shown)
[11] = even at elevated concentrations e.g. 100 μM (data not shown)

For `Nc1nc(O)c2ncn(COC(CO)CO)c2n1` [GCV, ganciclovir], the survival (NuTu-19 cells; few weeks after the start of the treatment) was 100%, the tumor growth (NuTu-19 cells) was “retarded tumor growth” and the telomere length (NuTu-19 cell line [1]) was “telomere shortening”. The apoptosis (HeLa cell line [2]; 1.5 μM GCV, 10 days (FIG. 1)) was “massive apoptosis”, the cell cycle distribution (HeLa cell line [2]; 1.5 μM GCV, 10 days (FIG. 1, FIG. 3)) was “changes in the cell cycle distribution” and the apoptosis (HeLa cell line [2]; [8]) was “massive apoptosis”. For the same compound, the cell cycle distribution (HeLa cell line [2]; [8]) was “G2 arrest”, the cell cycle distribution (NuTu-19 cell line [3]; NuTu-19, 1.5 μM GCV, 10 days (FIG. 3)) was “changes in the cell cycle distribution” and the apoptosis (NuTu-19 cell line [3]; [9]) was “massive apoptosis”. For the same compound, the cell cycle distribution (NuTu-19 cell line [3]; [9]) was “G2 arrest”, the telomere length (HeLa cell line [4]; 1.5 μM GCV, 10 days, vs untreated cells (FIG. 1)) was “decrease in telomere length” and the telomere length (HeLa cell line [4]; [8]) was “telomere shortening”. The “DNA content (PI staining)” value [5] was “higher DNA content”.
With `Nc1nc2c(ncn2COCCO)c(=O)[nH]1` [ACV, 9-[2(hydromethoxy)-methyl] guanine] the tumor growth (NuTu-19 cells) was “retarded tumor growth”, the telomere length (NuTu-19 cell line [1]) was “decrease in telomere length; also recorded: telomere shortening” and the apoptosis (HeLa cell line [2]; [8]) was “massive apoptosis”. The cell cycle distribution (HeLa cell line [2]; [8]) was “G2 arrest”, the apoptosis (NuTu-19 cell line [3]; [9]) was “massive apoptosis” and the cell cycle distribution (NuTu-19 cell line [3]; [9]) was “changes in cell cycle; also recorded: G2 arrest”. The telomere length (HeLa cell line [4]; [8]) was “telomere shortening” and the “DNA content (PI staining)” value [5] was “higher DNA content”.
With `CC(C)[C@H](N)C(=O)OCC(CO)OCn1cnc2c(=O)nc(N)[nH]c21` (stereo partly drawn) [Valcyte, valganciclovir] the tumor development (HeLa cells; 1 mg/ml in drinking water from day 0, all mice bearing tumors in about 14 days) was “All mice in control and treated groups had developed tumors”, the tumor regression (HeLa cells; one mouse from the treated group, by about the 30th day, monotherapy, 1 mg/ml in drinking water) was “this tumor was eliminated” and the tumor growth (HeLa cells; other mice in the treated groups, 1 mg/ml in drinking water) was “slowing of tumor growth (stabilization)”.
For `Cc1cn([C@H]2C[C@H](N=[N+]=[N-])[C@@H](CO)O2)c(=O)[nH]c1=O` [AZT, 3′-azido-2′,3′-dideoxythymidine], the “toxic effects on mammalian cells” value (mammalian cells) is listed as “induces undesirable toxic effects”, the “effect on telomere length” value (NuTu-19 cell line [1]; [10]) is listed as “no effect” and the “effect on cell cycle distribution” value (HeLa cell line [2]; [11]) is listed as “no effect”. For the same compound, the “effect on cell cycle distribution” value (NuTu-19 cell line [3]; [10]) was “no effect”, the “effect on telomere length” value (HeLa cell line [4]; [11]) was “no effect” and the telomere shortening ([6]; 100 μM (Murakami et al. 1999)) was “failed to induce any significant telomere shortening”. The telomere shortening ([6]; 800 μM (Gomez et al. 1998; Tejera et al. 2001)) was “failed to induce any significant telomere shortening”, the peak serum concentration [7] was “less than 10 μM” and the time of absorption [7] was no more than 0.5 h.
